{"source": "patent US11840527B2", "about": "“Non-fused thiophene derivatives and their uses” (ENYO PHARMA, priority 2018, dated 2023)", "test_system": "LXFL 1121", "assay": "Cytotoxicity, propidium iodide-based monolayer assay", "settings": "96 h; LXFL 1121, lung large cell carcinoma; four days of treatment; T/C=50%; read-out: Absolute IC50", "protocol": "The cytotoxicity was tested for compounds of the invention on five different cell-lines, namely LXFL 1121, MAXF 401, MMXF L-636, PRXF PC-3M and UXF 1138 which are respectively lung large cell carcinoma, breast adeno carcinoma, multiple myeloma, prostate adeno carcinoma and uterine sarcoma.\nTherefore, the compounds have a cytotoxicity against tumor cells and can be used for treating cancer. Materials and Methods Compound Handling A working stock solution of the test compounds was prepared in DMSO at a concentration of 33 mM or 8.25 mM, and small aliquots were stored at −20° C. On each day of an experiment, a frozen aliquot of the working stock solution was thawed and stored at room temperature prior to and during treatment. All liquid handling steps were performed using the Tecan Freedom EVO 200 platform. First, serial 2-fold dilutions of the 33 mM DMSO working stock solution were done in DMSO. […] Briefly, cells were harvested from exponential phase cultures, counted and plated in 96 well flat-bottom microtiter plates at a cell density of 4,000 to 40,000 cells/well dependent on the cell line's growth rate. […] After an incubation period of 1-2 hours at room temperature, fluorescence (FU) was measured using the Enspire Multimode Plate Reader (excitation λ=530 nm, emission λ=620 nm) to quantify the amount of attached viable cells. […]"}
{"smiles": "O=C(Nc1scc(-c2ccc(Cl)c(F)c2)c1C(=O)O)c1ccccc1", "note": "[Compound #2, 2-Benzamido-4-(4-chloro-3-fluoro-phenyl)thiophene-3-carboxylic acid]", "values": [{"measurement": "IC50", "value": 10.7, "unit": "µM"}]}
